From patent publication US7615651B2, “Diaryl, dipyridinyl and aryl-pyridinyl derivatives and uses thereof” (Pfizer Inc., priority 2006, dated 2009) come the findings set out here.

Like-named read-outs stand apart in the source and are kept apart here.

Format in all cases: biochemical
One assay concerns the target T1, opioid receptor delta (Homo sapiens, UniProt P41143).
T1 construct: expressed in transfected cells
In words: GTPγ[35S] binding assay, antagonism of BW-373U86. How it is done:
(§1) Membranes were prepared from cells as described (Bass et al, 1996). GTPγ[5S] binding assays were performed in a 96 well FlashPlate™ format in duplicate using […] GTPγ[^35S] and 5 μg membrane per well in assay buffer composed of 50 mM Tris HCl, pH 7.4, 5 mM MgCl2, 1 mM EDTA, 100 mM NaCl, 30 μM GDP, 0.1% bovine serum albumin and the following protease inhibitors: 100 μg/ml bacitracin, 100 μg/ml benzamidine, 5 μg/ml aprotinin, 5 μg/ml leupeptin. The assay mix was then incubated at 30° C. with increasing concentrations of antagonist (10^−10 M to 10^−5 M) for 10 minutes and challenged with the agonists BW-373U86 (1 nM), dynorphin-A (10 nM), […] (1 μM) for opioid receptors delta, kappa, and mu, respectively. The assays were performed at 30° C. for one hour. The FlashPlates were then centrifuged at 2000×g for 10 minutes. Stimulation of GTPγ[^35S] binding was then quantified using a Wallac Microbeta and Ki calculations were done using Prism™ by Graphpad.
Background: Binding of GTPγS marks nucleotide exchange on a G protein.

The target in a further assay is T2, opioid receptor kappa (Homo sapiens, UniProt P41145).
T2 construct: expressed in transfected cells
T2 sequence (P41145 whole entry): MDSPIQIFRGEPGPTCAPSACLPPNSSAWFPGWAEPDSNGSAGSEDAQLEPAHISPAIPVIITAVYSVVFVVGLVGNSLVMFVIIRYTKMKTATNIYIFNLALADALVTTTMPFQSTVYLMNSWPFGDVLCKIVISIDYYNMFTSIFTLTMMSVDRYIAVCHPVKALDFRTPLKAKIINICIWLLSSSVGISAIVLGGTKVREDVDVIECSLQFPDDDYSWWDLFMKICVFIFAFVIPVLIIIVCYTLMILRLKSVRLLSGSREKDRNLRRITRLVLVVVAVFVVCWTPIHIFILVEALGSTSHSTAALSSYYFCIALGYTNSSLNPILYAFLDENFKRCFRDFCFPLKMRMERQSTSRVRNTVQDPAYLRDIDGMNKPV
In words: GTPγ[35S] binding assay, antagonism of dynorphin-A. How it is done: as §1

A further assay addresses T3, opioid receptor mu (Homo sapiens, UniProt P35372).
T3 construct: expressed in transfected cells
Description: GTPγ[35S] binding assay, antagonism of endorphin. On the procedure: as §1

Setting [1] is: read-out: Delta functional Ki (GTPγ[35S] binding).
Setting [2] is: read-out: Kappa functional Ki (GTPγ[35S] binding).
Where [3] appears, read: read-out: Mu functional Ki (GTPγ[35S] binding).
The mark [4] stands for this setting: read-out: Delta functional (GTPγ[35S] binding Ki).
Where [5] appears, read: read-out: Kappa functional (GTPγ[35S] binding Ki).
Setting [6] is: read-out: Mu functional (GTPγ[35S] binding Ki).
[7] abbreviates: average Ki, antagonism of dynorphin-A (10 nM) at kappa opioid receptor membranes, read-out: Kappa functional Ki (GTPγ[35S] binding).
Setting [8] is: average Ki, antagonism of endorphin (1 μM) at mu opioid receptor membranes, read-out: Mu functional Ki (GTPγ[35S] binding).
Where [9] appears, read: average Ki, antagonism of BW-373U86 (1 nM) stimulated GTPγ[35S] binding, delta opioid receptor membranes, read-out: Delta functional (GTPγ[35S] binding Ki).
Where [10] appears, read: average Ki, antagonism of dynorphin-A (10 nM) stimulated GTPγ[35S] binding, kappa opioid receptor membranes, read-out: Kappa functional (GTPγ[35S] binding Ki).
Where [11] appears, read: average Ki, antagonism of endorphin (1 μM) stimulated GTPγ[35S] binding, mu opioid receptor membranes, read-out: Mu functional (GTPγ[35S] binding Ki).

T1 sequence (P41143 whole entry): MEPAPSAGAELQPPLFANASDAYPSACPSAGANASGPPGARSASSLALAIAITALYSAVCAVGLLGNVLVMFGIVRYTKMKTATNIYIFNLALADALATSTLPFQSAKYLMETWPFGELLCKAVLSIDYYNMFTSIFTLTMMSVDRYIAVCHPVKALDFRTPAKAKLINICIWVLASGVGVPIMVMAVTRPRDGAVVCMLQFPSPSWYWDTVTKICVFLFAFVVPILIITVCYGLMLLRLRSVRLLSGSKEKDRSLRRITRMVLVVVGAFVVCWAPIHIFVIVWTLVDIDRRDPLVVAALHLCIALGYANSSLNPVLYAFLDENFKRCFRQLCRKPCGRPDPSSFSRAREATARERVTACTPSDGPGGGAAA
T3 sequence (P35372 whole entry): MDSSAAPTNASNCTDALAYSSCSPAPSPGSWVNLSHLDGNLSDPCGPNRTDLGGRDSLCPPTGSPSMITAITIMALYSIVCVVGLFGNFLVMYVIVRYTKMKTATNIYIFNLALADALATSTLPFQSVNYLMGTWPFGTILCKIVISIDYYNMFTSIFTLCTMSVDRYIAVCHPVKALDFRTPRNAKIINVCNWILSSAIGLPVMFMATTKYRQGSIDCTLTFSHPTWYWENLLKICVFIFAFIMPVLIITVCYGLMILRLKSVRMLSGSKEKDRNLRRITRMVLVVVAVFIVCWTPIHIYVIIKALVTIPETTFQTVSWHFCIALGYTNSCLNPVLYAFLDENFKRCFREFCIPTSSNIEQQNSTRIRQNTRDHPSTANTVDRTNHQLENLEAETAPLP

As to `NC(=O)c1ccc(-c2ccc(CNCCC3CCCCO3)cc2Cl)c(Cl)c1` (centres unmarked) [4B-69], the Ki on opioid receptor delta (setting [1]) is 4.09 nM; on opioid receptor kappa (setting [2]), 4.54 nM; on opioid receptor mu (setting [3]), 2.78 nM.
Turning to `Cc1cc(C(N)=O)ccc1-c1ccc(CNC2Cc3ccccc3C2)cn1` [1D-03], the values for the Ki on opioid receptor delta (setting [4]), at opioid receptor kappa (setting [5]) and on opioid receptor mu (setting [6]) were 1.24 nM, 2.93 nM and 0.541 nM, respectively.
For `NC(=O)c1cccc(-c2ccc(CNC3CCc4ccccc43)cc2Cl)c1` (centres unmarked) [4A-11], in that order: 21.3 nM, 7.69 nM and 6.27 nM.
Turning to `CC(C)CCNCc1ccc(-c2cccc(-c3ncn[nH]3)c2)c(Cl)c1` [7A-04], the Ki at opioid receptor kappa (setting [7]) is 0.794 nM; at opioid receptor mu (setting [8]) it was 0.162 nM.
For the compound `CC(C)CCNCc1ccc(-c2ccc(C(N)=O)cc2Cl)cc1` [4B-29], the Ki at opioid receptor delta (setting [4]) was found to be 6.12 nM; on opioid receptor kappa (setting [5]) it was 6.1 nM; on opioid receptor mu (setting [6]), 16.2 nM.
As for `CC(C)CCNCc1ccc(-c2cccc(NS(C)(=O)=O)c2)c(C#N)c1` [8A-03], the Ki on opioid receptor delta (average Ki, antagonism of BW-373U86 (1 nM) at delta opioid receptor, read-out: Delta functional Ki (GTPγ[35S] binding)) was 18.4 nM; at opioid receptor kappa (average Ki, antagonism of dynorphin-A (10 nM) at kappa opioid receptor, read-out: Kappa functional Ki (GTPγ[35S] binding)), 13.7 nM; at opioid receptor mu (average Ki, antagonism of endorphin (1 μM) at mu opioid receptor, read-out: Mu functional Ki (GTPγ[35S] binding)) it was 1.16 nM.
Turning to `Cc1cc(C(N)=O)ccc1-c1ccc(CNC2CCc3ccccc32)cc1` (centres unmarked) [4B-21], the Ki at opioid receptor delta (setting [4]) came to 1.25 nM; at opioid receptor kappa (setting [5]), 0.872 nM; at opioid receptor mu (setting [6]) it was 1.5 nM.
Consider `Cc1cc(C(N)=O)cnc1-c1ccc(CNC2Cc3ccccc3C2)cc1` [4C-03], for which the Ki on opioid receptor delta (setting [1]) worked out at 0.822 nM; on opioid receptor kappa (setting [2]) it was 0.982 nM; at opioid receptor mu (setting [3]), 0.201 nM.
For `Cc1cc(C(N)=O)ccc1-c1ccc(CNC2CCOc3c(C)cccc32)cc1` (centres unmarked) [4B-22], the Ki on opioid receptor delta (setting [4]) is 5.1 nM; on opioid receptor kappa (setting [5]), 4.92 nM; on opioid receptor mu (setting [6]), 7.56 nM.
On the same counts, the results for `NC(=O)c1ccc(F)c(-c2cc(F)c(CNC3Cc4ccccc4C3)c(F)c2)c1` [1A-11] are 6.62 nM, 12.4 nM and 0.843 nM.
Consider `NC(=O)c1ccc(-c2ccc(CN[C@H]3CCc4ccccc43)cc2)c(Cl)c1` [4B-38], for which the figures for the Ki on opioid receptor delta (setting [1]), at opioid receptor kappa (setting [2]) and on opioid receptor mu (setting [3]) were 5.59 nM, 1.14 nM and 3.33 nM, respectively.
On to `CC(C)CCNCc1ccc(-c2ccc(F)c(C(N)=O)c2)cc1` [4A-02], for which the Ki came to 1.55 nM at opioid receptor delta (setting [9]), 724 nM on opioid receptor kappa (setting [10]) and 44800 nM at opioid receptor mu (setting [11]).
Regarding `NC(=O)c1ccc(-c2ccc(CNC3Cc4ccccc4C3)cn2)c(Cl)c1` [1D-06], the Ki was found to be 3.45 nM on opioid receptor delta (setting [4]), 4.13 nM on opioid receptor kappa (setting [5]) and 1.1 nM at opioid receptor mu (setting [6]).
On to `Cc1cc(-c2ccc(C(N)=O)cc2C)ccc1CNCCC(C)C` [4B-90], for which the Ki on opioid receptor delta (setting [1]) came out at 1.66 nM; on opioid receptor kappa (setting [2]), 1.66 nM; at opioid receptor mu (setting [3]), 1.17 nM.
With `Cc1cc(C(N)=O)ccc1-c1ccc(CN[C@@H](C)c2ccccc2)cc1` [4B-42], the Ki at opioid receptor delta (setting [1]) amounted to 22.2 nM; on opioid receptor kappa (setting [2]), 6.19 nM; at opioid receptor mu (setting [3]) it was 65.4 nM.
For `Cc1cc(CNCCC(C)C)ccc1-c1ccc(NS(C)(=O)=O)cc1` [E8-01, (4′-Methenesulfonylamino-2-methyl-biphenyl-4-ylmethyl)-(3-methyl-butyl)-ammonium chloride], in that order: 32.6 nM, 281 nM and 42.1 nM.
For `Cc1cc(C(N)=O)ccc1-c1ccc(CN[C@H]2CCc3ccccc32)cc1` [4B-34], in that order: 1.09 nM, 0.512 nM and 1.08 nM.
For `CC(C)CCNCc1ccc(-c2cc(F)cc(C(N)=O)c2)cc1` [4A-04], the Ki turned out to be 21.4 nM at opioid receptor delta (setting [9]), 60.1 nM at opioid receptor kappa (setting [10]) and 92.1 nM at opioid receptor mu (setting [11]).
Take `Cc1cc(C(N)=O)ccc1-c1ccc(CNCc2ccc3c(c2)CCO3)cc1` [4B-20]: the Ki on opioid receptor delta (setting [4]) worked out at 4.21 nM; at opioid receptor kappa (setting [5]), 34.5 nM; on opioid receptor mu (setting [6]), 7.1 nM.
For `Cn1c(=O)n(C)c2cc(CNCc3ccc(-c4cccc(C(N)=O)c4)c(Cl)c3)ccc21` [6A-04], the Ki at opioid receptor delta (average Ki, antagonism of BW-373U86 (1 nM) at delta opioid receptor membranes, read-out: Delta functional Ki (GTPγ[35S] binding)) was 32.3 nM; at opioid receptor kappa (setting [7]), 805 nM; on opioid receptor mu (setting [8]) it was 15 nM.
For `CC(C)CCNCc1ccc(-c2ccc(C(N)=O)cc2C(F)(F)F)cc1` [4B-02], the Ki at opioid receptor delta (setting [4]) is 15.4 nM; on opioid receptor kappa (setting [5]) it was 29.7 nM; at opioid receptor mu (setting [6]), 57.2 nM.
Consider `Cc1cc(CNCCC(C)C)ccc1-c1ccc(C(N)=O)cc1Cl` [4B-62], for which the Ki turned out to be 3.58 nM at opioid receptor delta (setting [1]), 2.56 nM at opioid receptor kappa (setting [2]) and 6.4 nM at opioid receptor mu (setting [3]).
